Measurements taken from US20210395311A1, “CYCLIC PEPTIDE DIMERS” (New York University, priority 2019, published 2021).
Entries after “also recorded” stand apart in the source; their conditions may differ. Bridge positions count the residues as written; N and C are the ends. Ends that are not written are not given here. I, II: the chains in the order shown.

Tests used:
[1] = Solubility of the synthetic peptides; type: physicochemical; details: 10% acetonitrile in water was used to dissolve
Description: It was synthesized separately. For 324822, protected linear peptide was cleaved from resin and cyclized in DMF following the above procedure. After removing the protecting groups, the peptide was isolated by RP-HPLC purification. […] 10% acetonitrile in water was used to dissolve the peptides.

[2] = tested on: B16F10 mouse melanoma cells; experiment: CIF in vitro bioassay: contact inhibitory response of B16F10 cells to test samples; type: cell-based; details: for CIF activity of synthesized monomer and dimer: monomer and dimer separated by RP-HPLC, each separately bioassayed; for contact inhibition activity of cyclic peptide dimer isomers: peptides A-C unprotected, D-F with one Acm-protected Cys per ring
Description: Contact Inhibitory Factor is a Structurally Novel Endogenous Cyclic Decapeptide Dimer. Determining the Structure of the CIF Molecule—Overall Approach. Identifying the molecule responsible for restoring contact inhibition of growth to melanoma cells first required production of the CIF positive culture medium from the serum free AM cell line (SFAMCM), followed by column chromatography, electrophoresis and mass spectroscopy of this culture medium. Samples obtained after each procedure were evaluated for CIF activity with an in vitro bioassay (Bioassay described herein). Identification of CIF structure evolved in three stages: (1) the CIF active conditioned medium from the AM cells (SFAMCM) contained a single decapeptide; (2) the decapeptide is head-to-tail cyclic; (3) the complete bioactive CIF molecule is a dimer composed of identical disulfide linked cyclic decapeptides. An in vitro bioassay used to monitor and guide purification involved the contact inhibitory response of B16F10 mouse melanoma cells to test samples. The latter included (1) CIF-containing medium from both the AM and revertant FF cell lines; (2) all fractions derived from the AM medium during purification; (3) the synthetic CIF peptide. Results were evaluated independently by two investigators. Samples were graded from 0 to 4, where 0 indicated no activity and 4 indicated maximum activity. Only samples graded 3 or 4 by both investigators were selected for purification.
Bioassay. Preparation of Samples. Conditioned Culture Medium (SFFFCM) and (SFAMCM). The positive control was the CIF positive conditioned culture medium from the FF cell line, SFFFCM. The negative control was DMEM 10% FBS. 3.6 ml of the sample was pipetted into a sterile 15 ml tube and heat activated at 80° C.×10 mins (minutes). After cooling to room temperature 0.4 ml FBS was added to make the FBS concentration 10%. For different volumes of conditioned culture medium the appropriate volume of FBS was added to make the final FBS concentration 10%. Both SFFFCM and SFAMCM were lyophilized and stored in desiccator jars under vacuum at 3° C.
Lyophilized Samples. To prepare the SFFFCM and the SFAMCM for the bioassay they were reconstituted with DMEM, heat activated at 80° C.×10 mins and cooled to room temperature. Sufficient volume of FBS was added to make the final FBS concentration 10%. The final volume of the sample was at least 2 ml to ensure that there was enough material for refeeding the bioassay plates.
Dilution of Samples. The samples were tested at 1:1 (undiluted), 1:2 and 1:4. The dilutions were made with DMEM 10% FBS. Higher dilutions may be used as needed. Each well contained 0.2 ml of sample, including the positive and negative controls. Each sample was done in duplicate. The wells were refed with fresh sample after 48 hrs.
Setting up the Bioassay. Using a 96 well flat bottom plate, 0.2 ml sterile water was pipetted into all outside wells. 0.2 ml 10% DMEM containing 20,000 B16F10 cells were pipetted into each well for the bioassay. Each sample was done in duplicate, including positive and negative controls. […]. The plate was placed in a 37° C., 5% CO2 incubator for approximately 4 hours to allow for cells to attach and spread. The time for attachment may vary for other cell lines. After the cells had attached and spread, the DMEM was removed and replaced with 0.2 ml of sample, positive and negative controls. The wells were observed daily and scored for CIF activity. The wells were refed after 48 hours or as needed, 0.2 ml for weekdays, 0.3 ml for weekends.
Scoring for CIF Activity. The samples were scored for CIF activity as follows:
4+=All cells are contact inhibited, flattened with an elongated fibroblast-like morphology. 3+=Not all cells are contact inhibited, elongated or fibroblast-like. There are a few scattered clusters of dividing cells. 2+=Fewer contact Inhibited cells and more clusters of dividing cells. […]

Row | Substance | contact inhibition activity of cyclic peptide dimer isomers [2] | also measured
1 | c (Gly-Met-Met-Cys-Val-Thr-His-Cys-Asn-Gly (SEQ ID NO:1)) w/Cys-Cys bridge (cyclo(GMMCVTHCNG); disulfide 4-8 (inferred)) [compound 324822] | – | solubility in 100% aqueous solution [1]: not soluble
2 | dimer: synthesized CIF dimer of two identical disulfide linked head-to-tail cyclic decapeptides (SEQ ID NO:1), peak at 2068 Da (cyclo(GMMCVTHCNG); also: disulfide-linked dimer of two identical cyclic peptides, Cys not given here) | – | CIF activity of synthesized monomer and dimer [2]: strongly positive; CIF activity of synthesized monomer and dimer ([2]; listed as synthetic dimer): CIF positive
3 | monomer: synthetic head-to-tail cyclic decapeptide Gly-Met-Met-Cys-Val-Thr-His-Cys-Asn-Gly (SEQ ID NO:1), peak at 1034 Da (GMMCVTHCNG; head-to-tail cyclized) | – | CIF activity of synthesized monomer and dimer [2]: CIF negative
4 | peptide A: two head-to-tail cyclized SEQ ID NO:1 peptides; Cys at position 8 disulfide bonded to Cys at position 8 of the second (chain 1 GMMCVTHCNG; chain 2 GMMCVTHCNG; disulfide I:8-II:8; cysteine pairing not given here; also: head-to-tail to a chain's N/C-terminus) | suitable contact inhibitors | –
5 | peptide B: two head-to-tail cyclized SEQ ID NO:1 peptides; Cys at position 4 disulfide bonded to Cys at position 4 of the second (chain 1 GMMCVTHCNG; chain 2 GMMCVTHCNG; disulfide I:4-II:4; cysteine pairing not given here; also: head-to-tail to a chain's N/C-terminus) | suitable contact inhibitors | –
6 | peptide C: two head-to-tail cyclized SEQ ID NO:1 peptides; Cys at position 8 disulfide bonded to Cys at position 4 of the second (chain 1 GMMCVTHCNG; chain 2 GMMCVTHCNG; disulfide I:8-II:4; cysteine pairing not given here; also: head-to-tail to a chain's N/C-terminus) | suitable contact inhibitors | –
7 | peptide D: SEQ ID NO:1 head to tail cyclized, attached via a disulfide bond, one Cys on each sequence acetamidomethyl (Acm) protected (chain 1 GMMCVTHCNG; chain 2 GMMCVTHCNG; disulfide (positions not given here); also: one Cys per chain Acm-protected, which not given here, head-to-tail to a chain's N/C-terminus) | did not have activity; also recorded: not effective contact inhibitors | –
8 | peptide E: SEQ ID NO:1 head to tail cyclized, attached via a disulfide bond, one Cys on each sequence acetamidomethyl (Acm) protected (chain 1 GMMCVTHCNG; chain 2 GMMCVTHCNG; disulfide (positions not given here); also: one Cys per chain Acm-protected, which not given here, head-to-tail to a chain's N/C-terminus) | did not have activity; also recorded: not effective contact inhibitors | –
9 | peptide F: SEQ ID NO:1 head to tail cyclized, attached via a disulfide bond, one Cys on each sequence acetamidomethyl (Acm) protected (chain 1 GMMCVTHCNG; chain 2 GMMCVTHCNG; disulfide (positions not given here); also: one Cys per chain Acm-protected, position not given here, head-to-tail to a chain's N/C-terminus, head-to-tail to a chain's N/C-terminus) | did not have activity; also recorded: not effective contact inhibitors | –
